{
  "source": "patent US20070048356A1",
  "about": "“Antimicrobial treatment of nonwoven materials for infection control” (priority 2005, published 2007)",
  "key": {"[1]": {"tested_on": "broad spectrum of microorganism (gram positive and gram negative bacteria, and fungi: mold and yeast)", "settings": "within 15 minutes; baseline data of Tables 12-15", "quoted_text": "The experimental procedure is based on ASTM E 2149-01. In brief, the test is performed by first adding a 2″×2″ sample of treated material to a flask containing 50 mL of a buffered-saline solution. The flask is then inoculated with the challenge organism (6.5-7 log10 total) and shaken through mechanical means for a designated period of time. At specified time points, a sample of the solution is then removed and plated. Lastly, the plate is incubated, examined for microbial growth, and the number of colony forming units counted. The log reduction in organisms is measured by comparing the growth on the experimental plate to control plates with no antimicrobial treatment."}, "[2]": {"tested_on": "P. aeruginosa (ATCC 9027)", "assay": "Dynamic Shake Flask (based on ASTM E 2149-01) on treated nonwoven", "format": "cell-based", "experimental": "The test organisms are grown in 25 mL appropriate broth medium for about 24±2 hours at 37±2° C. in a wrist action shaker. The bacterial culture is then transferred by placing about 100 μL aliquot in 25 mL of broth and grown again for about 24±2 hours at 37±2° C. The organisms are then centrifuged and washed three times with phosphate buffered saline (PBS). The organisms are then suspended in PBS to obtain an inoculum of approximately 1×10^8 CFU/mL.\nThe test articles and control swatches are exposed to an ultraviolet light source for about 5-10 minutes per side before testing to assure that the swatches are sanitized prior to inoculation with the bacteria. The test materials are brought into contact with a known population of test bacteria from the inoculum for a specified period of time. A sample is then plated at the end of the exposure time to enumerate the surviving bacteria. The log10 reduction form the control material and the original population is calculated using the following formula: Log10 Control*−Log10 CFU/swatch Test Article=Log10 Reduction\n[…] This buffer solution contains a chemical to de-activate or “neutralize” the antimicrobial agent to (a) stop the active agent from killing the organisms after the designated time period and (b) to prevent artifacts that may arise from exposing the microorganisms to the antimicrobial in solution rather than solely on the substrate. Because each chemical used as an antimicrobial agent is a little different (ie: cationic, nonionic, metal, etc), a different neutralizer was likely added in each case to shut off the antimicrobial at the desired end point of the experiment. […] The neutralizer employed may be selected from a list that is commonly used in the field. […] Testing Mat."}},
  "data": [
    {"substance": "Polyhexamethylene biguanide [PHMB]", "values": [
      {"measurement": "log10 reduction in colony forming units (CFU)", "setting": "[1]", "result": "≥ 3", "unit": "log10"},
      {"measurement": "Dynamic Shake Flask Log10 Reduction", "setting": "[2]; Table 13, Meltblown, contact time 1 min", "result": 4, "unit": "Log10"},
      {"measurement": "Dynamic Shake Flask Log10 Reduction", "setting": "[2]; Table 13, Meltblown, contact time 5 min", "result": 4, "unit": "Log10"},
      {"measurement": "Dynamic Shake Flask Log10 Reduction", "setting": "[2]; Table 13, Meltblown, contact time 15 min", "result": 4, "unit": "Log10"},
      {"measurement": "Dynamic Shake Flask Log10 Reduction", "setting": "[2]; Table 13, SMS, contact time 1 min", "result": 4, "unit": "Log10"},
      {"measurement": "Dynamic Shake Flask Log10 Reduction", "setting": "[2]; Table 13, SMS, contact time 5 min", "result": 4, "unit": "Log10"},
      {"measurement": "Dynamic Shake Flask Log10 Reduction", "setting": "[2]; Table 13, SMS, contact time 15 min", "result": 4, "unit": "Log10"},
      {"measurement": "Dynamic Shake Flask Log10 Reduction", "setting": "[2]; Table 13, Spunbond, contact time 1 min", "result": 4, "unit": "Log10"},
      {"measurement": "Dynamic Shake Flask Log10 Reduction", "setting": "[2]; Table 13, Spunbond, contact time 5 min", "result": 4, "unit": "Log10"},
      {"measurement": "Dynamic Shake Flask Log10 Reduction", "setting": "[2]; Table 13, Spunbond, contact time 15 min", "result": 4, "unit": "Log10"},
      {"measurement": "Dynamic Shake Flask Log10 Reduction", "setting": "[2]; Table 18, Spunbond substrate, contact time 1 min", "result": 0.07, "unit": "Log10"},
      {"measurement": "Dynamic Shake Flask Log10 Reduction", "setting": "[2]; Table 18, Spunbond substrate, contact time 5 min", "result": 0.12, "unit": "Log10"},
      {"measurement": "Dynamic Shake Flask Log10 Reduction", "setting": "[2]; Table 18, Spunbond substrate, contact time 15 min", "result": 0.34, "unit": "Log10"},
      {"measurement": "Dynamic Shake Flask Log10 Reduction", "setting": "[2]; Table 20, SMS substrate, contact time 1 min", "result": 0.07, "unit": "Log10"},
      {"measurement": "Dynamic Shake Flask Log10 Reduction", "setting": "[2]; Table 20, SMS substrate, contact time 5 min", "result": 0.12, "unit": "Log10"},
      {"measurement": "Dynamic Shake Flask Log10 Reduction", "setting": "[2]; Table 20, SMS substrate, contact time 15 min", "result": 0.34, "unit": "Log10"}
    ]}
  ]
}
